According to patent US8361968B2 (Takeda Pharmaceutical Company Limited, priority 2002, dated 2013):
Numbered stars: 1 amine (or outer) side, 2 acyl side, 3 side chain; on linkers, the order of the positions; unused ones are H or OH. Square brackets hold non-standard residues; d marks the D form. Peptide text beside a SMILES is read from it. * marks the point of attachment. X10 = NC(=O)C[C@@H](C(=O)[*:2])N(C[C@@H](N)Cc1ccc(O)cc1)[*:1]; Phe(4-Cl) = N[C@@H](Cc1ccc(Cl)cc1)C(=O)O; Arg(Me) = CNC(=N)NCCC[C@H](N)C(=O)O; Fmoc = O=C(OCC1c2ccccc2-c2ccccc21)*; d3Pal = N[C@H](Cc1cccnc1)C(=O)O; Cha = N[C@@H](CC1CCCCC1)C(=O)O; X3 = NC(=S)[C@H](Cc1ccccc1)N*; azaGly = NNC(=O)O

These compounds were tested against hOT7T175 (Homo sapiens, UniProt Q969F8, L364H) (assay: Intracellular Ca ion level-increasing activity using FLIPR in hOT7T175/CHO). Conditions: relative, Metastin (1-54) = 1.
Format: cell-based
Design: expressed in transfected cells; host or cells: CHO/dhfr- cells, obtained from ATCC
Method: Assay for Intracellular Ca Ion Level-Increasing Activity Using Flipr
In accordance with the method described in JPA 2000-312590, the intracellular Ca ion level-increasing activity was measured using FLIPR.
The stable expression cell line hOT7T175 was acquired by transduction of expression plasmid pAK-rOT175 for animal cells into CHO/dhff cells, using CellPhect Transfection Kit (Amersham Pharmacia Biotech, Inc.). First, 240 μL of Buffer A (attached to CellPhect Transfection Kit) was added to 9.6 μg of plasmid DNA dissolved in 240 μl of distilled water, followed by stirring. After settling the mixture for 10 minutes, 480 μL of Buffer B (attached to CellPhect Transfection Kit) was added to the mixture, which was vigorously stirred to form DNA-containing liposomes. Then, 4×10^5 CHO/dhff cells (obtained from ATCC) were inoculated on a 60 mm Petri dish. […] After culturing the cells at 37° C. for 6 hours in 5% carbon dioxide gas, the cells were washed twice with serum-free Ham's F-12 medium and 3 ml of 15% glycerol was added to the cells in the Petri dish to treat for 2 minutes. The cells were again washed twice with serum-free Ham's F-12 medium followed by incubation in Ham's F-12 medium supplemented with 10% fetal bovine serum at 37° C. for 15 hours in 5% carbon dioxide gas. The cells were dispersed by trypsin treatment and recovered from the Petri dish. The recovered cells were inoculated on a 6-well plate in 1.25×10^4 cells/well and incubation was initiated at 37° C. in Dulbecco's modified Eagle medium (DMEM) medium (Nissui Seiyaku Co., Ltd.) containing 10% dialyzed fetal bovine serum (JRH BIOSCIENCES, Inc.) under 5% carbon dioxide gas. […] The medium was exchanged on Days 1 and 2 to remove the cells died.
The intracellular Ca ion level-increasing activity of the synthetic peptide in hOT7T175/CHO was determined using FLIPR (Molecular Devices, Inc.).
hOT7T175/CHO was subcultured in DMEM supplemented with 10% dialyzed fetal bovine serum (hereinafter abbreviated as dFBS) and provided for the experiment (hereinafter abbreviated as 10% dFBS/DMEM). The hOT7T175/CHO was suspended in 10% dFBS-DMEM in 15×10^4 cells/ml. The suspension was inoculated on a 96-well plate for FLIPR (Black Plate Clear Bottom, Coster, Inc.) at 200 μL each (3.0×10^4 cells/200 μL/well), followed by incubation at 37° C. overnight in a 5% CO2 incubator (hereinafter simply referred to as the cell plate). Then, 21 ml of HANKS/HBSS (9.8 g of HANKS, 0.35 g of sodium hydrogencarbonate, 20 ml of 1M HEPES; after adjusting the pH to 7.4 with 1N sodium hydroxide, the mixture was sterilized by filtration), 210 μl of 250 mM Probenecid and […] of fetal bovine serum (FBS) were mixed (HANKS/HBSS-Probenecid-FBS).
Furthermore, 2 vials of Fluo3-AM (50 μug/vial) were dissolved in 21 μL of dimethylsulfoxide and 21 μL of 20% Pluronic acid. The resulting solution was added to and mixed with 10 ml of HANKS/HBSS-Probenecid-FBS described above. After the culture medium was removed, the mixture was dispensed onto the cell plate in 100 μL each/well, followed by incubation at 37° C. for an hour in a 5% CO2 incubator (pigment loading). The peptide was dissolved in dimethylsulfoxide in 1×10^−3 M. The peptide solution was diluted with HANKS/HBSS containing 2.5 mM Probenecid, 0.2% BSA and 0.1% CHAPS.

Chain of hOT7T175 (Q969F8 whole entry L364H): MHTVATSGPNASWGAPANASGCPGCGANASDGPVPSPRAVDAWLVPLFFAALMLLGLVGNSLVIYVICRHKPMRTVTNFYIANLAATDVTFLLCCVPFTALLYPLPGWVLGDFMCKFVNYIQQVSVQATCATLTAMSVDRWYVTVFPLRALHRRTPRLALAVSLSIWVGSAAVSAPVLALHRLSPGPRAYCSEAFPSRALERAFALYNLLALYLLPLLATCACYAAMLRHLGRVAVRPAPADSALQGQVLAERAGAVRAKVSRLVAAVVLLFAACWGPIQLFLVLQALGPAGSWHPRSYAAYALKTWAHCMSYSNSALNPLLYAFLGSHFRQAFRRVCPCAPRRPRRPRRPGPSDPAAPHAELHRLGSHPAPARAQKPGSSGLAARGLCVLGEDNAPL

Specific Activity (intracellular Ca ion level-increasing activity)	Compound
20	CNC(=N)NCCC[C@H](NC(=O)[C@H](CC(C)C)NC(=O)CNC(=O)[C@H](Cc1ccccc1)NC(=O)[C@H](CO)NC(=O)[C@H](CC(N)=O)NC(=O)[C@H](Cc1c[nH]c2ccccc12)NC(=O)[C@H](N)Cc1ccc(O)cc1)C(=O)N[C@@H](Cc1ccccc1)C(N)=O [Compound No. 217] (H-[dY]WNSFGL[Arg(Me)]F-NH2)
5	CC(C)C[C@H](NC(=O)CNC(=O)[C@H](Cc1ccccc1)NC(=O)[C@H](CO)NC(=O)[C@H](CC(N)=O)NC(=O)[C@H](Cc1c[nH]c2ccccc12)NC(=O)OCC1c2ccccc2-c2ccccc21)C(=O)N[C@@H](CCCNC(=N)N)C(=O)N[C@@H](Cc1ccccc1)C(N)=O [Compound No. 54] (Fmoc-WNSFGLRF-NH2)
2	CNC(=N)NCCC[C@H](NC(=O)[C@H](CC(C)C)NC(=O)NNC(=O)[C@H](Cc1ccccc1)NC(=O)[C@H](CO)NC(=O)[C@H](CC(N)=O)NC(=O)[C@H](Cc1c[nH]c2ccccc12)NC(=O)[C@H](CC(N)=O)NC(=O)[C@H](N)Cc1cccnc1)C(=O)N[C@@H](Cc1ccccc1)C(N)=O [Compound No. 258, D-Pya(3)-Asn-Trp-Asn-Ser-Phe-AzaGly-Leu-Arg(Me)-Phe-NH2] (H-[d3Pal]NWNSF[azaGly]L[Arg(Me)]F-NH2)
10	CNC(=N)NCCC[C@H](NC(=O)[C@H](CC(C)C)NC(=O)CNC(=O)[C@H](Cc1ccccc1)NC(=O)[C@H](CO)NC(=O)[C@H](CC(N)=O)NC(=O)[C@H](Cc1c[nH]c2ccccc12)NC(=O)[C@@H](CC(N)=O)NC(=O)[C@H](N)Cc1ccc(O)cc1)C(=O)N[C@@H](Cc1ccccc1)C(N)=O [Compound No. 230]
5	CNC(=N)NCCC[C@H](NC(=O)[C@H](CC(C)C)NC(=O)NNC(=O)[C@H](Cc1ccccc1)NC(=O)[C@H](CO)NC(=O)[C@H](CC(N)=O)NC(=O)[C@@H](Cc1c[nH]c2ccccc12)NC(=O)[C@H](CC(N)=O)NC[C@@H](N)Cc1ccc(O)cc1)C(=O)N[C@@H](Cc1ccccc1)C(N)=O [Compound No. 300, TyrΨ(CH2NH)Asn-D-Trp-Asn-Ser-Phe-AzaGly-Leu-Arg(Me)-Phe-NH2] (H-[X10][dW]NSF[azaGly]L[Arg(Me)]F-NH2)
1	CNC(=N)NCCC[C@H](NC(=O)[C@H](CC(C)C)NC(=O)CNC(=O)[C@H](Cc1ccccc1)NC(=O)[C@H](CO)NC(=O)[C@H](CC(N)=O)NC(=O)[C@@H](NC(=O)[C@H](CC(N)=O)NC(=O)[C@H](N)Cc1ccc(O)cc1)C(C)C)C(=O)N[C@@H](Cc1ccccc1)C(N)=O [Compound No. 229] (H-[dY]NVNSFGL[Arg(Me)]F-NH2)
10	CNC(=N)NCCC[C@H](NC(=O)[C@H](CC(C)C)NC(=O)CNC(=O)[C@H](Cc1ccccc1)NC(=O)[C@H](CO)NC(=O)[C@H](CC(N)=O)NC(=O)[C@H](Cc1c[nH]c2ccccc12)NC(=O)[C@H](CC(N)=O)NC(=O)[C@H](N)Cc1ccc(O)cc1)C(=O)N[C@@H](Cc1c[nH]c2ccccc12)C(N)=O [Compound No. 174] (H-[dY]NWNSFGL[Arg(Me)]W-NH2)
2	CNC(=N)NCCC[C@H](NC(=O)[C@H](CC(C)C)NC(=O)NNC(=O)[C@H](Cc1ccccc1)NC(=O)[C@H](CO)NC(=O)[C@H](CC(N)=O)NC(=O)[C@H](Cc1c[nH]c2ccccc12)NC(=O)[C@@H](CO)NC(=O)[C@H](N)Cc1ccc(O)cc1)C(=O)N[C@@H](Cc1ccccc1)C(N)=O [Compound No. 287, D-Tyr-D-Ser-Trp-Asn-Ser-Phe-AzaGly-Leu-Arg(Me)-Phe-NH2] (H-[dY][dS]WNSF[azaGly]L[Arg(Me)]F-NH2)
2	2-Aminoethyl-Gly-D-Tyr-Asn-Trp-Asn-Ser-Phe-Gly-Leu-Arg(Me)-Phe-NH2 [Compound No. 375]
10	CNC(=N)NCCC[C@H](NC(=O)[C@H](CC(C)C)NC(=O)CNC(=O)[C@H](CC1CCCCC1)NC(=O)[C@H](CO)NC(=O)[C@H](CC(N)=O)NC(=O)[C@H](Cc1c[nH]c2ccccc12)NC(=O)[C@H](CC(N)=O)NC(=O)[C@H](N)Cc1ccc(O)cc1)C(=O)N[C@@H](Cc1ccccc1)C(N)=O [Compound No. 203, D-Tyr-Asn-Trp-Asn-Ser-Cha-Gly-Leu-Arg(Me)-Phe-NH2] (H-[dY]NWNS[Cha]GL[Arg(Me)]F-NH2)
10	CC(C)C[C@H](NC(=O)CNC(=O)[C@H](Cc1ccccc1)NC(=O)[C@H](CO)NC(=O)[C@H](CC(N)=O)NC(=O)[C@H](Cc1c[nH]c2ccccc12)NC(=O)[C@H](CC(N)=O)NC(=O)[C@@H](N)Cc1ccc(O)cc1)C(=O)N[C@@H](CCCNC(=N)N)C(=O)N[C@@H](Cc1ccccc1)C(N)=S [Compound No. 128] (H-YNWNSFGLR-X3)
10	CC(C)C[C@H](NC(=O)CNC(=O)[C@H](Cc1ccccc1)NC(=O)[C@H](CO)NC(=O)[C@H](CC(N)=O)NC(=O)[C@H](Cc1c[nH]c2ccccc12)NC(=O)[C@H](CC(N)=O)NC(=O)[C@@H](N)Cc1ccc(O)cc1)C(=O)N[C@@H](CCCNC(=N)N)C(=O)N[C@@H](Cc1ccc(F)c(F)c1)C(N)=O [Compound No. 198]
2	CNC(=N)NCCC[C@H](NC(=O)[C@H](CC(C)C)NC(=O)NNC(=O)[C@H](Cc1ccccc1)NC(=O)[C@H](CO)NC(=O)[C@H](CC(N)=O)NC(=O)[C@H](CC1CCCCC1)NC(=O)[C@@H](Cc1ccc(O)cc1)NC(=O)[C@H](N)Cc1cccnc1)C(=O)N[C@@H](Cc1ccccc1)C(N)=O [Compound No. 291, D-Pya(3)-D-Tyr-Cha-Asn-Ser-Phe-AzaGly-Leu-Arg(Me)-Phe-NH2] (H-[d3Pal][dY][Cha]NSF[azaGly]L[Arg(Me)]F-NH2; N-terminus assumed)
10	CC[C@H](C)[C@H](NC(=O)[C@H](CC(N)=O)NC(=O)[C@H](N)Cc1ccc(O)cc1)C(=O)N[C@@H](CC(N)=O)C(=O)N[C@@H](CO)C(=O)N[C@@H](Cc1ccccc1)C(=O)NCC(=O)N[C@@H](CC(C)C)C(=O)N[C@@H](CCCNC(=N)NC)C(=O)N[C@@H](Cc1ccccc1)C(N)=O [Compound No. 206] (H-[dY]NINSFGL[Arg(Me)]F-NH2)
1	CNC(=N)NCCC[C@H](NC(=O)[C@H](CC(C)C)NC(=O)NNC(=O)[C@H](Cc1ccccc1)NC(=O)[C@H](CO)NC(=O)[C@H](CC(N)=O)NC(=O)[C@@H](NC(=O)[C@H](CC(N)=O)NC(=O)[C@H](N)Cc1ccc(O)cc1)C(C)C)C(=O)N[C@@H](Cc1ccccc1)C(N)=O [Compound No. 234, D-Tyr-Asn-Val-Asn-Ser-Phe-AzaGly-Leu-Arg(Me)-Phe-NH2] (H-[dY]NVNSF[azaGly]L[Arg(Me)]F-NH2; N-terminus assumed)
1	CNC(=N)NCCC[C@H](NC(=O)[C@H](CC(C)C)NC(=O)NNC(=O)[C@H](Cc1ccccc1)NC(=O)[C@H](CO)NC(=O)[C@H](CC(N)=O)NC(=O)[C@H](Cc1ccc(Cl)cc1)NC(=O)[C@H](CC(N)=O)NC(=O)[C@H](N)Cc1ccc(O)cc1)C(=O)N[C@@H](Cc1ccccc1)C(N)=O [Compound No. 249, D-Tyr-Asn-Phe(4Cl)-Asn-Ser-Phe-AzaGly-Leu-Arg(Me)-Phe-NH2] (H-[dY]N[Phe(4-Cl)]NSF[azaGly]L[Arg(Me)]F-NH2)
10	D-Tyr-D-Pya(4)-Asn-Ser-Phe-AzaGly-Leu-Arg(Me)-Trp-NH2 [Compound No. 385]
